Each structure is given as a SMILES string. Entries after “also recorded” stand apart in the source; their conditions may differ. Read-outs that look alike come from different tables or passages of the source.

Holding throughout (assay type): cell-based
Test [1] relates to Rat osteogenic sarcoma tumor spheroids. Briefly: Speckle fluctuation spectroscopy: differential spectrograms (normalized spectral difference) of living tumor spheroids by coherence-gated digital holography. The source says: The set-up includes several mirrors M; a neutral density filter ND, two polarizing beam splitters PBS, a beam splitter BS, three lenses L1-L3, a half-wave plate λ/2, a quarter-wave plate λ/4, a Fourier plane FP, and a sample or target T. A mode-locked Ti:sapphire laser (100 fs pulse duration, 100 MHz repetition rate) was used with a center wavelength of 840 nm and a bandwidth of 17 nm. The lenses L1 and L2 expanded a reference beam, and the lens L3 performed the Fourier transform of the object beam. The CCD camera was placed at the Fourier plane of the object, where the object beam interfered with the zero-path-matched reference beam that passed through the computer-controlled delay line. The typical object intensity for living tissue at the object plane was 5 mW/mm^2, and an 8-bit CCD camera with one mega-pixel resolution was used with an exposure time of 10 msec. Digital holograms were reconstructed by Fast Fourier transform (FFT).
Rat osteogenic sarcoma tumor spheroids were used as the target tissue samples. Multicellular tumor spheroids have approximately spherical geometry that facilitates comparison of structure to function. As tumor spheroids are cultured in a rotating bioreactor, they undergo cell apoptosis or necrosis in their center and so consist of an inner necrotic core surrounded by an outer proliferating shell with a 100 to 200 μm thickness. A typical pseudo B-scan image is shown in FIG. 20, which is produced from 3D holographic images of an 800-μm-diameter rat tumor spheroid.
To capture dynamic speckle, 200 successive digital holograms were acquired at a fixed depth shown as a dashed line in FIG. 20. The time interval between holograms was selected to be 0.1 second. Examples of dynamic speckle are shown in FIG. 21A for a healthy rat tumor spheroid with a 600 μm diameter. […] The horizontal axis is the spatial axis and time is vertical. […] A “healthy” tumor is one that has been removed from the bioreactor and maintained in growth medium at room temperature for no more than 24 hours.
For tissue responding to stimuli, such as temperature and osmolarity changes or response to drugs, the key property of the spectral power density is its relative change in response to the stimulus. The normalized spectral difference for a time series is given by
[formula] where S0 (ω,t 0) is the starting spectral power density at the beginning time t0 of the experiment, and S(ω, t) is the time development of the spectral power density. The normalized power spectrum as a function of frequency of a 450-μm-diameter tumor responding to a dose of 1 μg/ml of nocodazole, an anti-tubulin cytoskeletal drug, is shown in FIG. 21C at selected times after the application of the drug. The associated normalized differential relative spectral change is shown in FIG. 21D as a function of time for the selected frequencies.
The tissue response contained in D(ω, t) can be represented as a spectrogram, showing the relative change in the spectrum as a function of time. These spectrograms track the changes of the intra-cellular motion in living tumors responding to temperature changes, osmolarity changes, and to nocodazole. The spectral difference in response to changes in temperature is shown in FIG. 22A as the temperature increased from 24° C. to 37° C. and then decreased to 24° C. The lower frequencies show weak suppression with increasing temperature, while the upper frequencies show significant enhancement at the highest temperature.
The drug-response spectrograms are defined by the differential relative spectral density as D(ω, t)=[S(ω, t)−S(ω, t0)]/S (ω, t0) where the spectrum at time t is related to and normalized by the spectrum at time to before the application of the perturbation or dose. The normalization is essential, because the spectral power density has general 1/f behavior, and the high frequency amplitudes are much smaller than the low frequency amplitudes. […]

For the next test, the system named is tumor spheroids. Briefly: Motility contrast imaging (motility metric, dynamic speckle) of tumor spheroids. Particulars: for dose-response plotted as a reaction velocity (suppression of cellular motion): FIG. 13D, comparison of Nocodazole, Colchicine, Taxol. On the procedure: To create tumor spheroids for our studies, two different cell lines were used: rat osteogenic sarcoma UMR-106 cells, and human liver carcinoma Hep G2 cells. These were cultured in a rotating bioreactor (Synthecon, Houston, Tex.) where they were maintained in suspension. The spheroids may be grown up to a mm in diameter. An advantage to using this continuous culture model is that fresh spheroids of varying size are easily prepared on a daily basis.
Motility contrast imaging relies on dynamic light scattering combined with coherence gating. […] The data are the reconstructed pixel intensities plotted on a dB reflectance scale. The tumor in FIG. 9A was “healthy” while the tumor in FIG. 9B had been crosslinked with glutaraldehyde. […] The vertical axis is frame number at a rate of one frame per second.
Among the several possible ways to define a motility metric, one particularly robust approach simply calculates the coefficient of variance (known as the CV or as the normalized standard deviation) of a pixel value (after background subtraction) as a property related to the cellular and subcellular motion. The motility metric for individual pixels is plotted in FIG. 11 at nine selected depths inside a healthy tumor. The depths starting in the upper-left are 60 μm, 120 μm, 180 μm, 260 μm, 330 μm, 390 μm, 460 μm, 530 μm and 600 μm, respectively. The first frame is near the top of the tumor, while the central frame is near the center plane of the tumor. In the central plane there is a strong contrast between the healthy shell and necrotic core. […] These images correlate with the known structure of the tumor spheroids with a healthy outer shell and a necrotic core. In these images, the internal motions of the cells themselves have provided the imaging contrast agent. This is a truly endogenous functional imaging approach (i.e. without additional labeling or contrast agents).
Armed with the motility metric and the maps of cellular motion, it is possible to image the effects of anti-mitotic drugs (AMD) on the motility images. A time series at a fixed depth is shown in FIG. 12 for Nocodazole, which is an antimitotic drug (AMD) that inhibits the polymerization of tubulin into microtubules. The first frame is the initial state of the tumor. […] Nocodazole inhibits the polymerization of the microtubules, while treadmilling dissolves the microtubules from the other end, resulting in a significant reduction in the microtubule density within the cells. Without the microtubule cytoskeleton, organelle transport is suppressed, which is captured by the dynamic light scattering.

Test [2] has as its system tumor spheroid (healthy shell and necrotic core). The test is described as follows: Heterodyne autocorrelation function of depth-gated speckle (correlation time, NSD) of a tumor spheroid. Conditions: 10 minutes after 10 μg/ml cytochalasin D. The source says: In living tissue, the speckle is dynamic, caused by motion of cellular membranes and by intracellular organelles, coupled with the optical channel cross-talk caused by multiple scattering. […] We previously studied the effects of anti-mitotic drugs on tumor spheroids using optical coherence imaging, and defined motility metrics from the autocorrelation functions of the depth-gated pixel fluctuations. The resulting motility contrast imaging (MCI) is fully endogenous, responding to the dynamic functions of cellular processes. The autocorrelation function is a first-order heterodyne function because the holography uses a reference wave (the coherence gate) that captures the real and imaginary part of the fluctuating field as the coherence-gated pixel number Id^(1) (t) to yield the autocorrelation function A^(1)(τ)= ? id^(1)(0)id^(1)(τ) ? ∝ILO^2+2ILORE {I^(1)(τ)} where τ is the time delay among an ensemble of images, and I^(1), (τ) is the heterodyne correlation function. Two motility metrics can be defined from the heterodyne correlation function. They are the decay time, and the normalized standard deviation, given by
An ensemble consists of 40 images taken with a frame rate of 1 per second. […] […].

With `O=C(O)CI` [iodoacetate], in test [1], the “oscillations in the spectrogram, shell and core” value is reported as “induces oscillations in the mid-to-low frequency range”; the “spectrogram of the shell, high frequencies associated with organelle transport” value is “strong increase”.
Regarding `O=CCCCC=O` [glutaraldehyde], in the test on tumor spheroids (tumor crosslinked with glutaraldehyde, depth about 300 microns, one frame per second), the “dynamic speckle at fixed depth” value is “static speckle”.
With `COc1cc2c(c(OC)c1OC)-c1ccc(OC)c(=O)cc1[C@@H](NC(C)=O)CC2` [Colchicine], in test [1], the “high-frequency organelle activity, core-shell comparison” value (“high-frequency organelle activity” below) is “appears only in the healthy shell and not in the core”; the spectrogram fingerprint entry was “significant enhancement of lower frequencies”.
Regarding `CC(=O)O[C@H]1C(=O)[C@@]2(C)[C@H]([C@H](OC(=O)c3ccccc3)[C@]3(O)C[C@H](OC(=O)[C@H](O)[C@@H](NC(=O)c4ccccc4)c4ccccc4)C(C)=C1C3(C)C)[C@]1(OC(C)=O)CO[C@@H]1C[C@@H]2O` [Taxol, Paclitaxel], the spectrogram fingerprint result in test [1] (dose of 1 μg/ml, FIG. 34A-34D) is “only a weak change”. Further, the “high-frequency organelle activity” value in test [1] (shell versus core spectrograms) is “appears only in the healthy shell and not in the core”. In addition, in the test on tumor spheroids (FIG. 13A-13C), the “suppression of the motility, time evolution under different doses” value is recorded as “significantly smaller suppression of the motility”. Further, the “dose-response plotted as a reaction velocity (suppression of cellular motion)” value with tumor spheroids is reported as “weakest effect”.
With `C=C1[C@@H](C)[C@H]2[C@H](Cc3ccccc3)NC(=O)[C@]23[C@H](OC(C)=O)/C=C/[C@@](C)(O)C(=O)[C@@H](C)C/C=C/[C@H]3[C@@H]1O` [cytochalasin D], the “relative power spectral density, middle-frequency fluctuations, shell” value in test [1] (50 μg/ml cytochalasin D at room temperature, 10 μg/ml at physiological temperature) is “enhanced”. Besides, in test [1] (dose of 1 μg/ml, FIG. 34A-34D), the spectrogram fingerprint entry is reported as “enhancement of the mid-frequencies for about 2 hours after application of the drug, followed by a shift of the spectral weight to lower frequencies”. In test [1] (shell versus core spectrograms), the “high-frequency organelle activity” value is “appears only in the healthy shell and not in the core; also recorded: appears strongly only in the shell and not in the core”. Moreover, in test [2], the “brightness change of the healthy shell” value was found to be 6% and the “brightness change of the necrotic core” value is “becomes dimmer”. For the same compound, the “correlation time, healthy shell” value in test [2] (before dose 4.6 sec) stood at 7.2 s.
As to `COC(=O)Nc1nc2ccc(C(=O)c3cccs3)cc2[nH]1` [Nocodazole], the “normalized spectral difference, middle frequency range between 0.02 Hz to 1 Hz” value in test [1] (1 μg/ml nocodazole) is reported as “very strong suppression in motion”. Besides, the “normalized spectral difference, ultra-low frequency below 0.01 Hz” value in test [1] (1 μg/ml nocodazole) is reported as “enhancement”. Further, in test [1] (1 μg/ml nocodazole, 450-μm-diameter tumor, proliferating shell), the “normalized differential relative spectral change as a function of time at selected frequencies” value is listed as “higher frequencies change relatively less than the lower frequencies”. In test [1] (dose of 1 μg/ml, FIG. 34A-34D), the spectrogram fingerprint entry is on record as “significant enhancement of lower frequencies”. In the test with tumor spheroids (2 μg/ml Nocodazole, 3 minutes after application, fixed depth), the “motility (activity) of the outer shell, motility maps” value is reported as “increased its activity by a small amount”. The “motility (motion) of the outer shell, motility maps” value is on record as “partially suppressed” in the test with tumor spheroids (2 μg/ml Nocodazole, 21 minutes); “further suppressed” with tumor spheroids (2 μg/ml Nocodazole, 50 minutes); “further suppressed” with tumor spheroids (2 μg/ml Nocodazole, 79 minutes). Moreover, the “motility in the outer shell, motility maps” value with tumor spheroids (2 μg/ml Nocodazole, 119 minutes after application) was “significantly reduced”. In the test on tumor spheroids, the “dose-response plotted as a reaction velocity (suppression of cellular motion)” value is “strongest suppression of cellular motion at the lowest effective concentrations”.

(Values after patent publication US10401793B2, “Digital holographic method of measuring cellular activity and measuring apparatus with improved stability” (PURDUE RESEARCH FOUNDATION, priority 2010, dated 2019).)
